Like-named read-outs stand apart in the source and are kept apart here.
Assays:
ALPK1 = ALPK1 (Homo sapiens (Human), UniProt Q96QP1); experiment: ALPK1 in vitro kinase assay (HTRF of TIFA phosphorylation); format: biochemical
[1] = tested on: ALPK1-dependent NFκB reporter gene activation in HEK293 cells stably expressing an NF-kB reporter (G9 cells); experiment: NFκB gene reporter alkaline phosphatase assay; format: cell-based; conditions: read-out: NFkB assay IC50
Excerpt: In embodiments, a compound of Formula I, or a subembodiment described herein, is an inhibitor of ALPK1 as measured, for example, in an in vitro kinase assay, or an assay designed to measure the activation of downstream targets of ALPK1 pathway activation, for example NFkB transcriptional activation and the secretion of proinflammatory cytokines and chemokines, such as IL-8, which is also referred to as CXCL-8. In general, the computer program XL fit was used for data analysis, including non-linear regression analysis. The half maximal inhibitory concentration (IC50) was used as the measure of a compound's effectiveness in the assays. IC50 values were determined using the following logistic equation Y=min+(max−min)/(1+(X/IC50^−hillslpoe), where Y is the value at the compound concentration, X. The concentration response curve fitting was conducted using GraphPad Prism version 6.00 software.
An alkaline phosphatase reporter assay system was used to measure inhibition of ALPK1-dependent NFκB reporter gene activation. Briefly, HEK293 cells stably expressing an NF-kB reporter (referred to herein as “G9 cells”) were maintained in DMEM as described above. For the assay, cells were seeded into 96-well plates at a density of 10,000 cells/well in Freestyle™ 293 Expression Medium (ThermoFisher), and allowed to attach overnight. Cells were pretreated with serially diluted compounds for 30 min and then stimulated with D-glycero-D-manno-6-fluoro-heptose-1β-S-ADP. […] NFkB gene activation was detected using the chromogenic substrate, para-nitrophenyl phosphate (pNPP) according to the manufacturer's protocols (pNPP Phosphatase Assay, Beyotime Biotechnology).

Sequence of ALPK1 (Q96QP1 whole entry): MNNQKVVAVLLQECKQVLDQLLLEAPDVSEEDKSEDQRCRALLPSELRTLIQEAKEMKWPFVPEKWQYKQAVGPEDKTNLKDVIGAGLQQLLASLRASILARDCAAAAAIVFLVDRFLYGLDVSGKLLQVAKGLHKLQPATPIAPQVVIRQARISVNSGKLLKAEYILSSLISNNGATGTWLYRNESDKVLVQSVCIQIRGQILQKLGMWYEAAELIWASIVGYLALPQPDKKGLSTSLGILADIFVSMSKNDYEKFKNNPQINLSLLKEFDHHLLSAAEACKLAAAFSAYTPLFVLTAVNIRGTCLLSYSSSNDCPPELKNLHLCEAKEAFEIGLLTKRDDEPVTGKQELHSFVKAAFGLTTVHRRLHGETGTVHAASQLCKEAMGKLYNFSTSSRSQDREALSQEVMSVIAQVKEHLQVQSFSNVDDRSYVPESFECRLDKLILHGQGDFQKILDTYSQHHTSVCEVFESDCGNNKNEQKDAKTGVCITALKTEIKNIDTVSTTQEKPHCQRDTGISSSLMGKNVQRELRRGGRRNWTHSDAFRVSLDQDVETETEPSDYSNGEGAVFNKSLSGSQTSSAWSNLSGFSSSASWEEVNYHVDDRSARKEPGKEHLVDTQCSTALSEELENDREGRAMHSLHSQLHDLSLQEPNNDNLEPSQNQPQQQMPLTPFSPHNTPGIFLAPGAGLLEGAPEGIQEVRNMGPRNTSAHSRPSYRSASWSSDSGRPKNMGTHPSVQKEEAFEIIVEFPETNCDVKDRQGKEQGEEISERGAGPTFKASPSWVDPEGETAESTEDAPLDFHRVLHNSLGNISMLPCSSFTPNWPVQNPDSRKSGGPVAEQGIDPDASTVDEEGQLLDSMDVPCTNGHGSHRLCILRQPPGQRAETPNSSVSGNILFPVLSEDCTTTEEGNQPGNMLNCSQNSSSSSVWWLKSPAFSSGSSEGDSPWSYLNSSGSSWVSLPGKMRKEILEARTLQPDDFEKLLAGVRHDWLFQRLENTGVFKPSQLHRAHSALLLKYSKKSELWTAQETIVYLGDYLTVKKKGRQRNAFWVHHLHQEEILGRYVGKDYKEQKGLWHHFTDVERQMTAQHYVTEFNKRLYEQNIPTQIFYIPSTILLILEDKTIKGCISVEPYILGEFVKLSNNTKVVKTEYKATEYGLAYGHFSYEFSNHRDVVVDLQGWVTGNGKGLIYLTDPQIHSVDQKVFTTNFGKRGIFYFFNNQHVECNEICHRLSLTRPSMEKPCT

COc1ccc(C(C)(C)c2csc(NC(=O)NC(C)c3cc(F)c(N4CCNCC4)cc3F)n2)cc1 (centres unmarked) [Example A002, 1-(1-(2,5-difluoro-4-(piperazin-1-yl)phenyl)ethyl)-3-(4-(2-(4-methoxyphenyl)propan-2-yl)thiazol-2-yl)urea]
IC50 (ALPK1): 63 nM
IC50 ([1]; Homo sapiens, HEK293): 700 nM

CC(NC(=O)Nc1nc(C(C)(C)c2ccc(Br)cc2)cs1)c1cc(F)c(N2CCNCC2)c(F)c1 (centres unmarked) [Example A003, 1-(4-(2-(4-bromophenyl)propan-2-yl)thiazol-2-yl)-3-(1-(3,5-difluoro-4-(piperazin-1-yl)phenyl)ethyl)urea]
IC50 (ALPK1): 45 nM
IC50 ([1]; Homo sapiens, HEK293): 1200 nM

CC(C)(c1ccc(Br)cc1)c1csc(NC(=O)NCc2cncnc2)n1 [Example A004, 1-(4-(2-(4-bromophenyl)propan-2-yl)thiazol-2-yl)-3-(pyrimidin-5-ylmethyl)urea]
IC50 (ALPK1): 240 nM
IC50 ([1]; Homo sapiens, HEK293): 2030 nM

CC(C)(c1ccc(Br)cc1)c1csc(NC(=O)NCc2ccc(C(N)=O)cc2)n1 [Example A008, 4-((3-(4-(2-(4-bromophenyl)propan-2-yl)thiazol-2-yl)ureido)methyl)benz-mide]
IC50 (ALPK1): 8 nM
IC50 ([1]; Homo sapiens, HEK293): 700 nM

CC(C)(c1ccc(Br)cc1)c1csc(NC(=O)NCc2ccc(N3CCC(O)C3)cc2)n1 (centres unmarked) [Example A009, 1-(4-(2-(4-bromophenyl)propan-2-yl)thiazol-2-yl)-3-(4-(3-hydroxypyrrolidin-1-yl)benzyl)urea]
IC50 (ALPK1): 154 nM
IC50 ([1]; Homo sapiens, HEK293): 3150 nM

CC(C)(c1ccc(Br)cc1)c1csc(NC(=O)NCc2ccc(N3CCN(CCO)CC3)nc2)n1 [Example A010, 1-(4-(2-(4-bromophenyl)propan-2-yl)thiazol-2-yl)-3-((6-(4-(2-hydroxyethyl)piperazin-1-yl)pyridin-3-yl)methyl)urea]
IC50 (ALPK1): 200 nM
IC50 ([1]; Homo sapiens, HEK293): 3950 nM

COc1ccc(C(C)(C)c2csc(NC(=O)NCc3ccc(N4CCC(N(C)C)C4)nc3)n2)cc1 (centres unmarked) [Example A011, 1-((6-(3-(dimethylamino)pyrrolidin-1-yl)pyridin-3-yl)methyl)-3-(4-(2-(4-methoxyphenyl)propan-2-yl)thiazol-2-yl)urea]
IC50 (ALPK1): 49 nM
IC50 ([1]; Homo sapiens, HEK293): 1370 nM

COc1ccc(C(C)(C)c2csc(NC(=O)NCc3cnc(N4CCC(N(C)C)C4)nc3)n2)cc1 (centres unmarked) [Example A012, 1-((2-(3-(dimethylamino)pyrrolidin-1-yl)pyrimidin-5-yl)methyl)-3-(4-(2-(4-methoxyphenyl)propan-2-yl)thiazol-2-yl)urea]
IC50 (ALPK1): 40 nM
IC50 ([1]; Homo sapiens, HEK293): 2210 nM

COc1ccc(C(C)(C)c2csc(NC(=O)NCCS(C)(=O)=O)n2)cc1 [Example A013, 1-(4-(2-(4-methoxyphenyl)propan-2-yl)thiazol-2-yl)-3-(2-(methylsulfonyl)ethyl)urea]
IC50 (ALPK1): 316 nM
IC50 ([1]; Homo sapiens, HEK293): 2970 nM

COc1ccc(C(C)(C)c2csc(NC(=O)NCc3ccc(NCCO)nc3)n2)cc1 [Example A014, 1-((6-((2-hydroxyethyl)amino)pyri-din-3-yl)methyl)-3-(4-(2-(4-methoxyphenyl)propan-2-yl)thiazol-2-yl)urea]
IC50 (ALPK1): 160 nM
IC50 ([1]; Homo sapiens, HEK293): 880 nM

COc1ccc(C(C)(C)c2csc(NC(=O)NCc3ccc(C(=O)NC4CCN(C)CC4)nc3)n2)cc1 [Example A015, 5-((3-(4-(2-(4-methoxyphenyl)propan-2-yl)thiazol-2-yl)ureido)methyl)-N-(1-methylpiperidin-4-yl)picolinamide]
IC50 (ALPK1): 24 nM
IC50 [1]: 880 nM

CN1CCN(Cc2ccc(CNC(=O)Nc3nc(C(C)(C)c4ccc(Br)cc4)cs3)cc2)CC1 [Example A016, 1-(4-(2-(4-bromophenyl)propan-2-yl)thiazol-2-yl)-3-(4-((4-methylpiperazin-1-yl)methyl)benzyl)urea]
IC50 (ALPK1): 27 nM
IC50 ([1]; Homo sapiens, HEK293): 2340 nM

CC(C)(c1ccc(Br)cc1)c1csc(NC(=O)NCc2ccc(F)c(Cl)c2)n1 [Example A017, 1-(4-(2-(4-bromophenyl)propan-2-yl)thiazol-2-yl)-3-(3-chloro-4-fluorobenzyl)urea]
IC50 (ALPK1): 204 nM
IC50 ([1]; Homo sapiens, HEK293): 970 nM

— patent publication US20240109853A1 (Shanghai Yao Yuan Biotechnology Co., Ltd., priority 2020, published 2024)
